Data set [1] in a line: Storage stability of the amorphous salt by x-ray powder diffraction. Type of data set: physicochemical. The settings on record: storage at room temperature in a sealed vessel; XRD curves after production and after storage essentially the same (FIG. 5). The source says: The reason for this is that the general experience with amorphous active substances is that they are less chemically stable, also while amorphous substances are left to stand, optionally, during storage, or in the pharmaceutical preparation itself they partially or completely transform into a crystalline form or into a mixture of several crystalline forms forming a morphologically inhomogeneous (non-uniform) active substance. Furthermore the solubility of the unstable amorphous compound usually differs from the solubility of the crystalline active substance, a morphological change during storage may lead to a change in the effect of the preparation. However, contrary to the general expectations it was surprising to experience that the formula (III) amorphous lumateperone salt according to the invention, in which salt the molar ratio of the formula (I) lumateperone and p-toluenesulfonic acid is 1:1, remains stable for 3 months (see FIG. 5) without transforming into the very stable polymorph form A or other form. […] It can be seen that the two curves are essentially the same, no peaks characteristic of crystalline forms are apparent even after storage. […] [table] [table]

A short description of data set [2]: DSC measurement of the amorphous tosylate. Type of data set: physicochemical. Particulars: 30° C. - 190° C., 10° C./min, open Al crucible. The method, then:
According to DSC measurements the amorphous form formed with p-toluenesulfonic acid according to the invention only transforms into the crystalline form A at a temperature of around 120° C. This supports that the amorphous form is suitable for the production of pharmaceutical preparations. In other words the advantage of the invention is that the amorphous salt according to the invention is morphologically uniform and stable. Therefore, it is not expected to transform into another form in the pharmaceutical preparation, and the quality of the preparations, primarily its dissolution characteristics are not expected to change. The morphological uniformity is supported by the x-ray powder diffractogram of the novel salt, it confirms its uniform crystal structure and enables the identification of the form even in a pharmaceutical preparation, thereby making it possible to monitor the quality at a later time, and differentiate it from other crystalline polymorphous forms. [table]

Here are results for 1 compound from patent publication US20230331727A1, “METHOD FOR THE PRODUCTION OF LUMATEPERONE AND ITS SALTS” (EGIS GYOGYSZERGYAR ZRT., priority 2017, published 2023).

As for `CN1CCN2c3c(cccc31)[C@@H]1CN(CCCC(=O)c3ccc(F)cc3)CC[C@@H]12.Cc1ccc(S(=O)(=O)O)cc1`, the “remains stable without transforming into the very stable polymorph form A or other form” value in data set [1] was 3 months. Further, the “temperature at which the amorphous form transforms into the crystalline form A” value in data set [2] was “around 120 °C”.
